Measurements as given in article PMC6877910, “Astrocyte-Targeted Transporter-Utilizing Derivatives of Ferulic Acid Can Have Multifunctional Effects Ameliorating Inflammation and Oxidative Stress in the Brain” (Oxidative Medicine and Cellular Longevity, 2019).

Legend:
[1] = tested on: peroxidase activity of cyclooxygenases (COX); test: Peroxidase activity of cyclooxygenases in cell lysates (fluorometric kit); format: biochemical; details: 100 μM; 30 min; assay does not differentiate COX from LOX
Experimental: A coupled oxidation-reduction fluorometric assay was used to assess the inhibitory effect of compounds (100 μM) together with positive controls on the peroxidase activity of cyclooxygenases (COX) (ab204699 Cyclooxygenase Activity Assay Kit, Abcam, Cambridge, UK). The method has been done and validated according to the manufacturer's protocol. Briefly, studied compounds (100 μM) and the reaction mixture were incubated with the cell lysates at room temperature and the reaction was initiated by adding arachidonic acid/NaOH solution. The fluorescence was read in a kinetic mode after every 15 seconds for 30 minutes by the EnVision plate reader (EnVision, PerkinElmer, Inc., Waltham, MA, USA) at λex 535 nm and λem 587 nm.

[2] = 5 h incubation in vitro; previous study; cited from earlier work
[3] = tested on: LPS-induced lipid peroxidation in primary astrocytes; test: LPS-induced lipid peroxidation (malondialdehyde formation) in primary astrocytes; format: cell-based, mouse; details: 50 μM compound with 0.1 μg/mL LPS, 24 h
Experimental: Primary astrocytes were seeded at the density of 2 × 10^5 cells/well onto collagen-coated 6-well plates. The cells were used for the experiments 2 days after seeding, and first, they were treated with 0.1 μg/mL lipopolysaccharide (LPS) in prewarmed HBSS buffer (250 μL) at 37°C for 24 h. The control cells were treated with prewarmed HBSS buffer only. The ability of compound to inhibit the oxidative stress was evaluated by adding FA (50 μM) or its derivatives 1-3 in prewarmed HBSS buffer (250 μL) together with LPS and incubating the cells at 37°C for 24 h. Tocopherol (vitamin E) was used as a positive control. […] The mixtures were then centrifuged at 10 000 × g for 10 min, and 50 μL of the supernatant was analyzed on a 96-well plate, each experiment as three technical replicates from three biological replicates. The fluorescence was read by the EnVision plate reader (EnVision, PerkinElmer, Inc., Waltham, MA, USA) at λex 532 nm and λem 553 nm. The amount of produced malondialdehyde (MDA) in each experiment was quantified from the standard curve; various amounts (1-800 μM) of MDA and thiobarbituric acid in water were incubated in a thermoshaker at 95°C for 1 h and analyzed simultaneously as duplicates with each studied batch. […] The results were analyzed as μmol of formed MDA per mg protein.

NF-κB = test: Total amount of NF-κB p65 (ELISA) in cells; format: cell-based, mouse; details: 100 μM; 24-96 h incubation
Experimental: Enzyme-Linked Immunosorbent Assay (ELISA) kits were used (mTOR SimpleStep ELISA Kit and NFκB p65 Total SimpeStep ELISA Kit, Abcam, Cambridge, UK) to quantify mammalian (or mechanistic) target of rapamycin (mTOR) and transcription factor NF-κB amounts, respectively. […] The control wells were treated with the solvent only (0.5% DMSO). Cells were solubilized using the provided extraction buffer with the kit, incubated on ice for 20 minutes and centrifuged at 18 000 × g for 20 min at 4°C. The supernatants were stored at -80°C till the day of the analysis. Standards and samples were then analyzed following the manufacturer's protocol (ELISA sandwich method) and by reading the absorbance with the EnVision plate reader (EnVision, PerkinElmer, Inc., Waltham, MA, USA) at 450 nm. The results were analyzed as pmol of formed mTOR or NF-κB per mL.

[4] = Bioconversion in mouse brain S9 subcellular fraction; format: in vitro ADME
[5] = cited from earlier work

## COc1cc(/C=C/C(=O)O)ccc1O [FA, trans-4-hydroxy-3-methoxycinnamic acid, reference compound]
[1]
  Inhibition of peroxidase activity of COX enzymes: inhibited the cellular peroxidase activity of COX enzymes

## COc1cc(C=CC(=O)NCc2cccc(CC(N)C(=O)O)c2)ccc1O (stereo not drawn) [FA-derivative 1]
[2]
  FA released / stability in mouse brain S9 subcellular fraction: remained intact

## COc1cc(C=CC(=O)Nc2cccc(CC(N)C(=O)O)c2)ccc1O (stereo not drawn) [FA-derivative 2]
[3]
  MDA levels lower than in the control incubation: approximately 12%
NF-κB
  Effect on total NF-κB levels: did not exert any effects

## COc1cc(C=CC(=O)Oc2cccc(CC(N)C(=O)O)c2)ccc1O (stereo not drawn) [FA-derivative 3]
[4]
  Bioconversion in the presence of donepezil: no bioconversion at all was observed
  half-life: ~3.58 h
[5]; in vitro human data
  Bioconversion in human plasma: rather insignificant
  Human hepatic intrinsic clearance, times slower than in mouse: 10 times
[5]; previous study
  Stability in human plasma and liver S9 subcellular fraction, times more stable (than in mouse): 10 times
